According to patent US20260223593A1, “Organic Compound, Light-Emitting Device, Display Apparatus, And Electronic Appliance” (Semiconductor Energy Laboratory Co., Ltd., priority 2023, published 2026):
Converted amounts (≈) assume the structure as drawn.

Assay: Solubility test of Ph3TP-hpp by LC/MS analysis (water solubility)
Type: physicochemical
Method: In the LC/MS analysis, LC (liquid chromatography) separation was carried out with Acquity UPLC (registered trademark) produced by Waters Corporation, and MS analysis (mass spectrometry) was carried out with Xevo G2 Tof MS produced by Waters Corporation. Acquity UPLC BEH C8 (2.1×100 mm, 1.7 μm) was used as a column for the LC separation. Acetonitrile was used for Mobile Phase A and a 0.1% aqueous solution of formic acid was used for Mobile Phase B. The injection amount of the sample was 5.0 μL. Note that in the analysis, the wavelength of a photodiode array detector was set to 246 nm±1 nm.
In a 5-mL sample bottle, 1 mg of Ph3TP-hpp was put and 2 mL of toluene was added thereto, and then this mixture was irradiated with ultrasonic waves for five minutes. After it was confirmed that the solid was completely dissolved, this solution was diluted by 2.5 times with acetonitrile, whereby the concentration of the solution was adjusted to 200 mg/L. This solution was diluted with acetonitrile, whereby solutions with concentrations of 20 mg/L, 10 mg/L, and 4 mg/L were prepared. The prepared solutions were subjected to LC/MS analysis, and the peak area values derived from Ph3TP-hpp, which were obtained at the respective solution concentrations, were used to form calibration curves.
Next, the water solubility of Ph3TP-hpp was measured.
In a 5-mL sample bottle, 1 mg of Ph3TP-hpp was put and 1 mL of water was added thereto, and then this mixture was irradiated with ultrasonic waves for five minutes. This mixture was filtered through a membrane filter to remove the solid, and the obtained filtrate was diluted by five times with acetonitrile. The obtained solution was subjected to LC/MS analysis.

- solubility of Ph3TP-hpp dissolved in 1 mL of water (1 mg in 1 mL of water, ultrasonic waves five minutes, membrane filtered, filtrate by LC/MS against calibration curve): 0.031 mg
- solubility at 5 min (thermodynamic from solid, water, from 0.031 mg in 1 mL, read-out: weight fraction of the water solubility): 31 µg/mL (≈ 52 µM)
- water solubility (in words) (water, LC/MS solubility test): low water solubility
SMILES: c1ccc(-c2cc(-c3cccc(N4CCCN5CCCN=C54)c3)c(-c3ccccc3)c(-c3ccccc3)c2-c2ccccc2)cc1 [Ph3TP-hpp, 1-(3′,4′,5′-triphenyl-1,1′:2′,1″-terphenyl-3-yl)-1,3,4,6,7,8-hexahydro-2H-pyrimide[1,2-a]pyrimidine]
